Results as given in ChEMBL document CHEMBL1201862, “PubChem BioAssay data set” (2004).
Active and inactive are the calls of the source.

Experiments:
[1] = target: Beta-2 adrenergic receptor (Homo sapiens, UniProt P07550); assay: beta2AR agonists driving receptor internalization, dose response, cell-based, FAP fluorogen, flow cytometry, cherry pick 1 (AID 588763); format: functional
[2] = growth suppression of beta-catenin-knockout colon cells, dose response, cell-based, HCT116, human colon tumor (AID 1045); format: functional;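 further: HCT116 colon tumor cells with beta catenin knocked out; cells exposed to compound for 60 hours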
[3] = inhibitors of PGC1a acetylation in cells, dose response, cell-based, cherry-picked samples (AID 720514); format: functional;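 further: potency may reflect raised or lowered acetylation signal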
[4] = inhibitors of SNCA 5'UTR-driven reporter translation, confirmation, H4 neuroglioma cells, luminescence (AID 1988); format: functional, cell-based
[5] = target: Sphingosine 1-phosphate receptor 1 (Homo sapiens, UniProt P21453); format: functional;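 further: Tango beta-arrestin reporter U2OS cells stimulated with S1P near its EC80; inhibitor potency meaning antagonism of receptor activation by the natural agonist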
INS1 = assay: beta cell apoptosis inhibitors, cytokine rescue, dose response, luminescence, retest (AID 449756); format: functional, cell-based; conditions: Rattus norvegicus;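 further: cell death triggered by IL-1 beta plus TNF-alpha plus IFN-gamma mixture; protective hits raise ATP signal compared with cytokine alone wells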
[6] = control 3'UTR Renilla luciferase suppression, dose response, counter-screen for Shn3 inhibitor project, cell-based, Clone20-Shn3RL, cherry-picked (AID 624133); format: functional
[7] = target: Sphingosine 1-phosphate receptor 4 (Homo sapiens, UniProt O95977); assay: Fluorescence dose response cell-based high throughput screening assay for antagonists of the Sphingosine 1-Phosphate Receptor 4 (S1P4). [Related pubchem assays: 1524 (Confirmation in triplicates.), 1510 (Primary screen.)]; format: functional
HEK293 [8] = assay: cells; format: functional, cell-based; conditions: Homo sapiens
HEK293 [9] = assay: NOD2 signaling inhibitors in MDP-stimulated cells, cell-based, uHTS, luminescence (AID 2001); format: functional; conditions: Homo sapiens
[10] = Luminescence Cell-Based Dose Response HTS to Identify Inhibitors of 5'UTR Stem-Loop Driven Prion Protein mRNA Translation in H4 Neuroglioblastoma Cells. [Related pubchem assays: 1827 (Project Summary), 1813 (Primary HTS)]; format: functional
HEK293 [11] = assay: NOD1 signaling inhibitors, primary screen, cell-based, luminescence, uHTS (AID 1578); format: functional; conditions: Homo sapiens
HEK293 [12] = assay: cells; format: functional, cell-based; conditions: Homo sapiens; remark: listed apart in the source
[13] = Shn3 3'UTR reporter inhibitors, dose response, cell-based, Clone20 osteoblasts, firefly luciferase, cherry-picked (AID 624132); format: functional;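 further: firefly luciferase luminescence from reporter carrying the Shn3 3'UTR in osteoblasts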
[14] = target: Nucleotide-binding oligomerization domain-containing protein 2 (Homo sapiens, UniProt Q9HC29); assay: NOD2 signaling inhibitors, cell-based, luminescence, uHTS, HEK293 (AID 1566); format: functional
[15] = growth suppression of PTEN-null colon cells, dose response, cell-based, HCT116 PTEN knockout (AID 1047); format: functional;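 further: HCT116 colon tumor cells with PTEN knocked out; cells exposed to compound for 60 hours before readout; potency for loss of cell viability measured by luminescence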
[16] = inhibitors of firefly luciferase expression or activity, dose response, H4 neuroglioma cells, luminescence (AID 1990); format: functional, cell-based
HEK293 [17] = assay: cells; format: functional, cell-based; conditions: Homo sapiens; remark: listed apart in the source
[18] = HepG2 cell cytotoxicity, dose response, cytotoxicity control for Shn3 inhibitor project, CellTiter-Glo, cherry-picked (AID 624134); format: functional, cell-based
Cysteine protease ATG4B = Cysteine protease ATG4B (Homo sapiens, UniProt Q9Y4P1); format: functional;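 further: Fluorescence-based dose-response confirmation assay measuring inhibition of ATG4B activity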
Nonstructural protein 1 = Nonstructural protein 1 (Influenza A virus, UniProt Q194T2); format: functional, Influenza A virus (A/California/07/2009(H1N1))
Phospholipase A2 = Phospholipase A2 (Homo sapiens, UniProt P04054); format: functional;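 further: confirmatory dose-response counterscreen on phospholipase A2, testing hits that came from an ultra-high-throughput screen for ATG4B inhibitors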
[19] = target: T1, Beta-adrenergic receptor kinase 1 (Homo sapiens, UniProt P25098); assay: aptamer displacement from bead-bound GRK2 – biochemical, cherry pick 1, bead flow cytometry, dose response (AID 504500)
[20] = target: T1, Beta-adrenergic receptor kinase 1; assay: GRK2 inhibitors displacing RNA aptamer, dose response, biochemical, flow cytometry beads, FAM-aptamer, powder set 1 (AID 588720)
Phospholipase D2 = Phospholipase D2 (Homo sapiens, UniProt O14939); assay: PLD2 purified enzyme concentration response. [Related pubchem assays (depositor defined):AID588854]; format: functional
Phospholipase D1 = target: T2, Phospholipase D1 (Homo sapiens, UniProt Q13393); assay: PLD1 purified enzyme concentration response. [Related pubchem assays (depositor defined):AID588854]; format: functional
T2 sequence (Q13393 whole entry): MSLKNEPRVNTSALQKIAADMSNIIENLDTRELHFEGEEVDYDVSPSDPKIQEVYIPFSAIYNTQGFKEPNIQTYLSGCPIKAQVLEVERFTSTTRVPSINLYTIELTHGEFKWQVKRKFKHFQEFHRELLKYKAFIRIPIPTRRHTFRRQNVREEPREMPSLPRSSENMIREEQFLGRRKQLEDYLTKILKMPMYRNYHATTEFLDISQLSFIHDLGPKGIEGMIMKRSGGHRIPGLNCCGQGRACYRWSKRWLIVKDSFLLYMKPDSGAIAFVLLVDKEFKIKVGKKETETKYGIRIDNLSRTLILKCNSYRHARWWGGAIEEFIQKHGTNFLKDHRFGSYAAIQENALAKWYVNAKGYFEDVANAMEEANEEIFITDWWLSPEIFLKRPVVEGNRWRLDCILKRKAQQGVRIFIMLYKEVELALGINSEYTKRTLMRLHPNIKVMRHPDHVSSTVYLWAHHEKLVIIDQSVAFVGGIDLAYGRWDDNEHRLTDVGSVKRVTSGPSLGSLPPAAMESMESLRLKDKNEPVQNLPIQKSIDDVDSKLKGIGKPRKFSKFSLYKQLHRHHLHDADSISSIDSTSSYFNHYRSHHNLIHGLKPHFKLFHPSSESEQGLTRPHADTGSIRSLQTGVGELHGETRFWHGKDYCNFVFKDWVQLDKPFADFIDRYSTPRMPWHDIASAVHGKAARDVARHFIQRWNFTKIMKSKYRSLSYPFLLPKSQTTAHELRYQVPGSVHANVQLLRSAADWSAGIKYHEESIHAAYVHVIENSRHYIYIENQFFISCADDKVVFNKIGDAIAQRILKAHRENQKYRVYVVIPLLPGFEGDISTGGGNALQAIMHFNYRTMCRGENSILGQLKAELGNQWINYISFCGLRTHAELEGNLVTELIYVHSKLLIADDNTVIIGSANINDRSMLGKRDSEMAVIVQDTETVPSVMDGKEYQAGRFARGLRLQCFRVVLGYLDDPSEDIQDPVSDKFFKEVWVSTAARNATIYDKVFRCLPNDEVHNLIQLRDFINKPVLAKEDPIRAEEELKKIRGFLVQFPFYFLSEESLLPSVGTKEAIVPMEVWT

HEK293 [21] = assay: SAR Analysis of small molecule inhibitors of B-cell specific antigen receptor-induced NF-kB activation in a HEK-293T cell line using a luminescence assay - Set 2. [Related pubchem assays (depositor defined):AID435022, AID435025, AID489021]; format: functional, cell-based; conditions: Homo sapiens
Jurkat = assay: SAR Analysis of small molecule inhibitors of […] specific antigen receptor-induced NF-kB activation in a Jurkat cell line using a luminescence assay - Set 3. [Related pubchem assays (depositor defined):AID435022, AID435025, AID465]; format: functional, cell-based; conditions: Homo sapiens
HEK293 [22] = assay: cytotoxicity in HEK293T NF-kB-Luc cells, SAR follow-up, cytotoxicity control for NF-kB activator project, cell-based, resazurin fluorescence (AID 493251); format: functional; conditions: Homo sapiens
Hexokinase-1 = target: T3, Hexokinase-1 (Homo sapiens, UniProt P19367); assay: SAR analysis of small molecule inhibitors of hexokinase domain containing I (HKDC1) in the hexokinase 1 selectivity assay. [Related pubchem assays (depositor defined):AID493160, AID493190]; format: functional
T3 sequence (P19367 whole entry): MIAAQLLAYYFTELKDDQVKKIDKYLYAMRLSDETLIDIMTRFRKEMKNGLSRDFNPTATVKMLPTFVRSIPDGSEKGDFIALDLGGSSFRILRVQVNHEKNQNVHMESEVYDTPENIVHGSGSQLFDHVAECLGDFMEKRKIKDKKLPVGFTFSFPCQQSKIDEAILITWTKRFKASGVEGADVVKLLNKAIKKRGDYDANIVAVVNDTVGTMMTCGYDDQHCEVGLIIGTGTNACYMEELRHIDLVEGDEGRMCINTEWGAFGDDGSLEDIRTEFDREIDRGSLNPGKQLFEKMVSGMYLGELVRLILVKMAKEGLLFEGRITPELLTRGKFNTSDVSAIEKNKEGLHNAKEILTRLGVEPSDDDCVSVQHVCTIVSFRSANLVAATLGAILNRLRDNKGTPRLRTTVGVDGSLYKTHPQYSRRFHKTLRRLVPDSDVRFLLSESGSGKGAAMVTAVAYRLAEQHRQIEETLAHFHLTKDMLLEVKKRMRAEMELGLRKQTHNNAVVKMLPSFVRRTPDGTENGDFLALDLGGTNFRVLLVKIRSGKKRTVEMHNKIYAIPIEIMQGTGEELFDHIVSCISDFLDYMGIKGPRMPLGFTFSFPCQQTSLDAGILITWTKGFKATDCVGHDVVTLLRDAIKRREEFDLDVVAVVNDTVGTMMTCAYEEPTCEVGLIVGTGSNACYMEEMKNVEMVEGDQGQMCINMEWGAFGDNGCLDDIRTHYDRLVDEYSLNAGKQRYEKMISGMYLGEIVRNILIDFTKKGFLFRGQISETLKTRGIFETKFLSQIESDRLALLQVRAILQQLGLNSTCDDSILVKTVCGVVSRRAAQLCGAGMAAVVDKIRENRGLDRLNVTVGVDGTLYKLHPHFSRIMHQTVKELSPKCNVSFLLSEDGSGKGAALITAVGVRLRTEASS

Hexokinase HKDC1 = target: T4, Hexokinase HKDC1 (Homo sapiens, UniProt Q2TB90); assay: SAR analysis of small molecule inhibitors of hexokinase domain containing I (HKDC1). [Related pubchem assays (depositor defined):AID493160, AID493190]; format: functional
T4 sequence (Q2TB90 whole entry): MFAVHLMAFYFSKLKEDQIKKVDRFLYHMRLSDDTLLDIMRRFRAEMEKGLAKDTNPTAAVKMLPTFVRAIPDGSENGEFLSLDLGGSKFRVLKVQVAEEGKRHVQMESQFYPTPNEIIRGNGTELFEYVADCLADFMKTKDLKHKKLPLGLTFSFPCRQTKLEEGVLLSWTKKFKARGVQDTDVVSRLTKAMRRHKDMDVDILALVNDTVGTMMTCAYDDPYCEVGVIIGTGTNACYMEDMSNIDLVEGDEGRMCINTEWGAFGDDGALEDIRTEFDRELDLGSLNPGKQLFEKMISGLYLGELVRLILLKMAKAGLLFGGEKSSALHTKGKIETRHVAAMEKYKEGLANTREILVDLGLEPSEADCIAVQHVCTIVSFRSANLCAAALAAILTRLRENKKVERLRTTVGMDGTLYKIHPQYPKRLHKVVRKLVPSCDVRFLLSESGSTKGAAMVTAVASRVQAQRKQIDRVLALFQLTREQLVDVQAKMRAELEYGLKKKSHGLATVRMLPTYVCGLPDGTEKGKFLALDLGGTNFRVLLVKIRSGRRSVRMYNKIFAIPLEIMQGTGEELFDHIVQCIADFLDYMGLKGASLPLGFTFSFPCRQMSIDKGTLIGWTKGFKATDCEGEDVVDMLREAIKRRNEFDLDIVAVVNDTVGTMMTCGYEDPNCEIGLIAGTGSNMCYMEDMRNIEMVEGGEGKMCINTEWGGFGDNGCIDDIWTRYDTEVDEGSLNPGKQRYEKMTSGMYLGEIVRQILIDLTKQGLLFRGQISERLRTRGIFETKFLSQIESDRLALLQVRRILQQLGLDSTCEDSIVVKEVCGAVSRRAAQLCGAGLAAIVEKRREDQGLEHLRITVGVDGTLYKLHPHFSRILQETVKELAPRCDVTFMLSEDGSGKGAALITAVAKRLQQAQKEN

T1 sequence (P25098 whole entry): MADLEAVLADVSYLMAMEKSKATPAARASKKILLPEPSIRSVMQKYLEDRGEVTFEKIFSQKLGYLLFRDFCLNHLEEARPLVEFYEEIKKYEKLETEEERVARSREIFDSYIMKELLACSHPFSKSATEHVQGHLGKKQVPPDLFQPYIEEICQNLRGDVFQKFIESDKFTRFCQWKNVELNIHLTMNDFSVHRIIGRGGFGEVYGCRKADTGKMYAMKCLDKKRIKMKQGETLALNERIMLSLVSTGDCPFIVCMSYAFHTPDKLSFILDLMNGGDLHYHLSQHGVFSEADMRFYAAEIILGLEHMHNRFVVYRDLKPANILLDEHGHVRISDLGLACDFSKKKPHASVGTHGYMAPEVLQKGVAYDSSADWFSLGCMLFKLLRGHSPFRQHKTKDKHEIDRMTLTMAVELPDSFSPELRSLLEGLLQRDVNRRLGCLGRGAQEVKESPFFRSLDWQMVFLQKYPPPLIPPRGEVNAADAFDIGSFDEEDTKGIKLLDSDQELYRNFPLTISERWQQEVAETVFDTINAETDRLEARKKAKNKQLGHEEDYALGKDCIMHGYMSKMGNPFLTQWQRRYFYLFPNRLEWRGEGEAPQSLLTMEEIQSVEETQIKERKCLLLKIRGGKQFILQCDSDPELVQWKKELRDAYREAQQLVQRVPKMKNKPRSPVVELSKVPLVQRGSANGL
Chain of Sphingosine 1-phosphate receptor 1 (P21453 whole entry): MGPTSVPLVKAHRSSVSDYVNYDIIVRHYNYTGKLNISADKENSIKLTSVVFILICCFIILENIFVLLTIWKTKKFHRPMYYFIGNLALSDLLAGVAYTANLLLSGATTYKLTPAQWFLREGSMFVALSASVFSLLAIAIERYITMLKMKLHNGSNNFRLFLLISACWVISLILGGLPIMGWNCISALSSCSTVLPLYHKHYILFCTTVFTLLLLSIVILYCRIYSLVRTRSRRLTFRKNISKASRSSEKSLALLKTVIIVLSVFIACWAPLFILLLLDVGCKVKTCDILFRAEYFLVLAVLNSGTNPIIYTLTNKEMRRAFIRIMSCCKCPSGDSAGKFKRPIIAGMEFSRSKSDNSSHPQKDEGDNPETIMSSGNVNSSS
Chain of Nucleotide-binding oligomerization domain-containing protein 2 (Q9HC29 whole entry, the tested form may be a part): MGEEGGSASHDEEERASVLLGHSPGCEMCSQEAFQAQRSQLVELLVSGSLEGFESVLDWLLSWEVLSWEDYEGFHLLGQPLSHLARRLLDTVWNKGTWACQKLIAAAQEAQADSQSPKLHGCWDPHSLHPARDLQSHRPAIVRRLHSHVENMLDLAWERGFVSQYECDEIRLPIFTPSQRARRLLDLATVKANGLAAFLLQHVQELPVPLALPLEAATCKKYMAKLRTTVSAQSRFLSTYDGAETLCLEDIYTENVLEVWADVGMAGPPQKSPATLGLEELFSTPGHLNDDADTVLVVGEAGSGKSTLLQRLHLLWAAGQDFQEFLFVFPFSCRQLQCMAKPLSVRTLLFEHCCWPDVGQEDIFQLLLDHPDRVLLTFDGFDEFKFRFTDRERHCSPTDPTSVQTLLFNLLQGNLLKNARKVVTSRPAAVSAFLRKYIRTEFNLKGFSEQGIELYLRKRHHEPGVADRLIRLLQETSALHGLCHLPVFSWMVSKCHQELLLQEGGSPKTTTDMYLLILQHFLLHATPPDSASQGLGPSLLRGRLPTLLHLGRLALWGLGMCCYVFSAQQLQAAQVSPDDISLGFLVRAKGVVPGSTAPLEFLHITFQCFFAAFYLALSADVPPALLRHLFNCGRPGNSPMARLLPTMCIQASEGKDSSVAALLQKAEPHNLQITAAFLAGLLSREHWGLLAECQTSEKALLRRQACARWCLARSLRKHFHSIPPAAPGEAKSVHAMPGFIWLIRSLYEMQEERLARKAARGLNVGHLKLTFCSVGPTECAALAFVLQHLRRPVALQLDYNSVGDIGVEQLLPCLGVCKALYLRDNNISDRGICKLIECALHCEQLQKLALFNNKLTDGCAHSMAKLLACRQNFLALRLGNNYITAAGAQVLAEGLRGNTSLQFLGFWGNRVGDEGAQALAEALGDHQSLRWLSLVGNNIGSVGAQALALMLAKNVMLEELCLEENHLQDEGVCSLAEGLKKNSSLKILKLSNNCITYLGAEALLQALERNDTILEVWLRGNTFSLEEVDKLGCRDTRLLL
Chain of Beta-2 adrenergic receptor (P07550 whole entry): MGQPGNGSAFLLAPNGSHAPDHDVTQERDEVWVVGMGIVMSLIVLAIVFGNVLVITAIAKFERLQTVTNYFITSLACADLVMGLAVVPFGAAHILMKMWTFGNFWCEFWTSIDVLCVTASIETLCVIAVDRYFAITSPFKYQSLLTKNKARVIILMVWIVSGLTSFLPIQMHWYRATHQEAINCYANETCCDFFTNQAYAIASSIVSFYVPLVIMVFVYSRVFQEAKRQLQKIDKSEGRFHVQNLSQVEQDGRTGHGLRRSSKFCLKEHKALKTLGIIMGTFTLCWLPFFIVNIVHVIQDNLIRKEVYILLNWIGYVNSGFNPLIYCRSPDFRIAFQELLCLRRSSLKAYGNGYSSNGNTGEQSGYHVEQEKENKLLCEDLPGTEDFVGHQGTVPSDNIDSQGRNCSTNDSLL
Chain of Cysteine protease ATG4B (Q9Y4P1 whole entry): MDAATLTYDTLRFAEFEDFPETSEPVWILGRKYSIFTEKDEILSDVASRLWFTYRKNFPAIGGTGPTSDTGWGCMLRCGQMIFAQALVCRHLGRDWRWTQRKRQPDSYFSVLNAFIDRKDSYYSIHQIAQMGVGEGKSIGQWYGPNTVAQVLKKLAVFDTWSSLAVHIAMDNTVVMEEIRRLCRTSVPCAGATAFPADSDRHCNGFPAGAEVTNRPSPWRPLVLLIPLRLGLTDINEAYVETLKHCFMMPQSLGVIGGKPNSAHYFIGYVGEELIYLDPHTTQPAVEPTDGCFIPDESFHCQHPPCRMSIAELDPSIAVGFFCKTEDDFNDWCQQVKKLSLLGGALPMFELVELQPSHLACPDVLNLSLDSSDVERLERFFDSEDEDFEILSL
Chain of Phospholipase D2 (O14939 whole entry): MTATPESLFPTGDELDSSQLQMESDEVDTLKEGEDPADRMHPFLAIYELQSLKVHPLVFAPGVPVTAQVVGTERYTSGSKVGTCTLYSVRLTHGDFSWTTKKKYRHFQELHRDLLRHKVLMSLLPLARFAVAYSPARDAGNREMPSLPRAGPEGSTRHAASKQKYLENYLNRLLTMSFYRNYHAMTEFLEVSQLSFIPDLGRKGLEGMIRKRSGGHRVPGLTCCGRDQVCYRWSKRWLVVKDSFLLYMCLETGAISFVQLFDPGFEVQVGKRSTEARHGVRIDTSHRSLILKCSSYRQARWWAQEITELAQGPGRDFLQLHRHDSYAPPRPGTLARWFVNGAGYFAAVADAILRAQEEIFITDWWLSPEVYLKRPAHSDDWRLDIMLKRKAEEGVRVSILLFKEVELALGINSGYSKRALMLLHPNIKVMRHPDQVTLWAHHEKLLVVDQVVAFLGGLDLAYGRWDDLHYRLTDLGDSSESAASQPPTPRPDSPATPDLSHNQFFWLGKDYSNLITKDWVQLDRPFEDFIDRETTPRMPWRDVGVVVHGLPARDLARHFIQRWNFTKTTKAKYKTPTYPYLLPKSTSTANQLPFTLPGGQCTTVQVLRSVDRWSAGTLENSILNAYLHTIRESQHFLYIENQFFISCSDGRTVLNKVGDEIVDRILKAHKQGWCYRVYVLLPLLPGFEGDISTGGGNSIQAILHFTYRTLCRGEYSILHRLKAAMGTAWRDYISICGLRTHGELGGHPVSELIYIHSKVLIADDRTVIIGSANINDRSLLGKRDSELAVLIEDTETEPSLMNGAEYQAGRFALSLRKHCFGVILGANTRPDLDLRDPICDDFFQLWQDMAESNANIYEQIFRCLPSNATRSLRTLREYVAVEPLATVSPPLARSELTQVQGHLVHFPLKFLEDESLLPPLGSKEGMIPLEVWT
Chain of Phospholipase A2 (P04054 whole entry): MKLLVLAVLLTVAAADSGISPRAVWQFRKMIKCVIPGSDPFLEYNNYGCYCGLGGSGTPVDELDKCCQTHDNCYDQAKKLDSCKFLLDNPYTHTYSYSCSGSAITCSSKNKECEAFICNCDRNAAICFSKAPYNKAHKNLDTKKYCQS
Chain of Sphingosine 1-phosphate receptor 4 (O95977 whole entry): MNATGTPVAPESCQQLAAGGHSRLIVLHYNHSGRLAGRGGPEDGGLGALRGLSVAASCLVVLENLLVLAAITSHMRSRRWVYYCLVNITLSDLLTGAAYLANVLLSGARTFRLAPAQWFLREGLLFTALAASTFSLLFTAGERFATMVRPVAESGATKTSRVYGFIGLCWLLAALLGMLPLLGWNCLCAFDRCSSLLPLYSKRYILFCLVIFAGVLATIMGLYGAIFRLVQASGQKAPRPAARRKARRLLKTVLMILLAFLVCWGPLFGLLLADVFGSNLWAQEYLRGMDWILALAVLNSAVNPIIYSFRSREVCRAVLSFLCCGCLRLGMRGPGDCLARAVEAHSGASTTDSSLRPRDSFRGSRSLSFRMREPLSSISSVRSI
Chain of Nonstructural protein 1 (Q194T2 whole entry): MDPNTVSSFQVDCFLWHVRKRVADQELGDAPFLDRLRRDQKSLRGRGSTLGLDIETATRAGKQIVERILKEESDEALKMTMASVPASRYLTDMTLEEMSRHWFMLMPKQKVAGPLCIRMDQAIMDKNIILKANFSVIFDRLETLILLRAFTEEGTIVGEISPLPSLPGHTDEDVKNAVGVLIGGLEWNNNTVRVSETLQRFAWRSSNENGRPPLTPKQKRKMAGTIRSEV

Cc1ccc(-c2nc(NC(=O)c3nn(C)cc3[N+](=O)[O-])sc2C)cc1
inactive: IC50 (HEK293 [8]) > 20 µM
21 µM (not active): IC50 [5]
active: EC50 [1] 8.09 µM | EC50 [2] 0.321 µM | AC50 [3] 3.81 µM | EC50 [4] 1.84 µM | AC50 (INS1) 5.22 µM | AC50 [6] 6.15 µM | IC50 [7] 1.07 µM | IC50 (HEK293 [9]) 2.14 µM | EC50 [10] 5.05 µM | EC50 (HEK293 [11]) 5.58 µM | IC50 (HEK293 [12]) 2.48 µM | AC50 [13] 1.3 µM | EC50 [14] 3 µM | EC50 [15] 0.4 µM | EC50 [16] 5.46 µM | IC50 (HEK293 [17]) 14.7 µM | AC50 [18] 26.8 µM

COCCNC(=O)/C(C#N)=C/c1c(N2CCN(c3ccccc3)CC2)nc2c(C)cccn2c1=O
active: IC50 (Cysteine protease ATG4B) 14.7 µM | IC50 (Nonstructural protein 1) > 100 µM | IC50 (Phospholipase A2) 9.79 µM

COc1ccc(CNC(=O)CCS(=O)(=O)c2ccc(Br)cc2)cc1
active: EC50 [19] 0.7 µM | EC50 [20] 3 µM

COc1cc(C(=O)NCCN2CCC3(CC2)C(=O)NCN3c2ccccc2)ccc1N
active: IC50 (Phospholipase D2) 0.17 µM | IC50 (Phospholipase D1) 1.08 µM

CCOc1ccc(-c2nc(CSCC(=O)NCCC3=CCCCC3)c(C)o2)cc1
active: IC50 (HEK293 [21]) 17.6 µM | IC50 (Jurkat) 9.13 µM
inactive: IC50 (HEK293 [22]) 42.4 µM

COc1cc2c(cc1OC)-c1cc(NCc3ccc(F)cc3)nc(=O)n1CC2
inactive: IC50 (Hexokinase-1) > 80 µM | IC50 (Hexokinase HKDC1) > 80 µM
